Data: US4556660A, “N-(Bicyclic heterocyclyl)-4-piperidinamines” (Janssen Pharmaceutica N.V., priority 1983, dated 1985)
Read-outs that look alike come from different tables or passages of the source.

Columns and labels:
[1] = system: compound 48/80-induced lethality; assay: Protection of rats from compound 48/80-induced lethality; assay type: in vivo, Male rats of an inbred Wistar strain; settings: Rattus norvegicus, 4 h, read-out: compound 48/80 lethality test rats-ED50
Protocol: Protection of rats from compound 48/80-induced lethality
The protection from compound 48/80-induced lethal circulatory collapse appears to be a simple way of evaluating quantitatively the antihistaminic activity of test compounds. Male rats of an inbred Wistar strain, weighing 240-260 g were used in the experiment. After overnight starvation the rats were transferred to conditioned laboratories (temp.=21±1° C., relative humidity-65±5%).
The rats were treated subcutaneously or orally with a test compound or with the solvent (NaCl solution, 0.9%). […] Survival after 4 hours is therefore considered to be a safe criterion of a protective effect of drug administration.
The ED50 -values of the compounds of formula (I) and the intermediates of formula (XVIII) are listed in the first column of table 1 and table 2. Said ED50 -values are the values in mg/kg body weight at which the tested compounds protect 50% of the tested animals against compound 48/80-induced lethality.

[2] = system: serotonin; compound 48/80-induced gastric lesions; assay: Antagonistic activity on the effects of serotonin in the gastric lesion test (lesions induced by compound 48/80); assay type: in vivo, Male rats of a Wistar inbred strain
Protocol: Antagonistic activity on the effects of serotonin in the gastric lesion test
Male rats of a Wistar inbred strain, weighing 220-250 g, were starved overnight, water being available ad libitum. The test compounds were administered orally as a solution or as a suspension in aqueous medium. A control rat and a "blank" rat received the test compound. One hour later 5-[4-(diphenylmethyl)-1-piperazinylmethyl]-1-methyl-1H-benzimidazole-2-methanol was administered subcutaneously to all rats at the dose of 2.5 mg/kg.
Four hours after the intravenous injection of compound 48/80, the rats were decapitated and the stomachs were removed. Subsequently the stomachs were inspected for distension and contents (blood, fluid, food) and thoroughly rinsed. The macroscopic lesions were scored from 0 to +++, 0 corresponding to complete absence of visible lesions and the highest score corresponding to reddish rough patches covering more than half the glandular area.

[3] = Rattus norvegicus, po; read-out: gastric lesion test ED50
[4] = Rattus norvegicus, po, read-out: gastric lesion test ED50

Row | SMILES | ED50 [1] [mg/kg] | ED50 [2, 3] [mg/kg] | ED50 [2, 4] [mg/kg]
1 | Cc1ccc(Cn2c(NC3CCN(CCNc4ncccn4)CC3)nc3ccccc32)o1 [Compound 21] | 0.04 | 0.63 | 
2 | Fc1ccc(Cn2c(NC3CCN(CCCCCNc4ncccn4)CC3)nc3ccccc32)cc1 [Compound 22] | 0.31 |  | 0.08
3 | NC(=O)c1cccnc1NCCN1CCC(Nc2nc3cccnc3n2Cc2ccc(F)cc2)CC1 [Compound 24, 2-[[2-[4-[[3-[(4-fluorophenyl)methyl]-3H-imidazo[4,5-b]pyridin-2-yl]amino]-1-piperidinyl]ethyl]amino]-3-pyridinecarboxamide] | 0.04 |  | 0.04
4 | Fc1ccc(Cn2c(NC3CCN(CCNc4ncccn4)CC3)nc3ncccc32)cc1 [Compound 25, 1-[(4-fluorophenyl)methyl]-N-[1-[2-[(2-pyrimidinyl)amino]ethyl]-4-piperidinyl]-1H-imidazo[4,5-b]pyridin-2-amine] | 0.02 | 0.16 | 
5 | c1ccc(Cn2c(NC3CCN(CCNc4ncccn4)CC3)nc3cccnc32)nc1 [Compound 27, 3-(2-pyridinylmethyl)-N-[1-[2-(2-pyrimidinylamino)ethyl]-4-piperidinyl]3H-imidazo[4,5-b]pyridin-2-amine (E)-2-butenedioate (2:3)] | 0.04 | 2.5 | 
6 | c1cnc(NCCN2CCC(Nc3nc4cccnc4n3Cc3ccco3)CC2)nc1 [Compound 28, 3-(2-furanylmethyl)-N-[1-[2-(2-pyrimidinylamino)ethyl]-4-piperidinyl]-3H-imidazo[4,5-b]pyridin-2-amine] | 0.04 | 0.63 | 
7 | Cl.Cl.Cl.Fc1ccc(Cn2c(NC3CCN(CCCNc4ccc(Cl)cn4)CC3)nc3ccccc32)cc1.O [Compound 30, N-[1-[3-[(5-chloro-2-pyridinyl)amino]propyl]-4-piperidinyl]-1-[(4-fluorophenyl)methyl]-1H-benzimidazol-2-amine trihydrochloride monohydrate] | 0.63 | 2.5 | 
8 | Nc1c(Cl)ncnc1NCCN1CCC(Nc2nc3ccccc3n2Cc2ccc(F)cc2)CC1 [Compound 31, 6-chloro-N^4-[2-[4-[[1-[(4-fluorophenyl)methyl]-1H-benzimidazol-2-yl]amino]-1-piperidinyl]ethyl]-4,5-pyrimidinediamine] | 0.16 | 1.25 | 
9 | Fc1ccc(Cn2c(NC3CCN(CCNc4cnccn4)CC3)nc3ccccc32)cc1 [Compound 33] | 0.16 | 2.5 | 
10 | Nc1cc(NCCN2CCC(Nc3nc4ccccc4n3Cc3ccc(F)cc3)CC2)nc(N)n1 [Compound 34] | 0.08 | 0.16 | 
11 | NC(=O)c1cccnc1NCCN1CCC(Nc2nc3ccccc3n2Cc2ccc(F)cc2)CC1 [Compound 36] | 0.08 | 0.16 | 
12 | Fc1ccc(Cn2c(NC3CCN(CCNc4ccc(Cl)nn4)CC3)nc3ccccc32)cc1 [Compound 37] | 0.08 | 1.25 | 
13 | Fc1ccc(Cn2c(NC3CCN(CCNc4ccc(Br)cn4)CC3)nc3ccccc32)cc1 [Compound 39] | 0.31 | 2.5 | 
14 | Fc1ccc(Cn2c(NC3CCN(CCNc4ncccc4Cl)CC3)nc3ccccc32)cc1 [Compound 40] | 0.16 | 0.31 | 
15 | NC(=O)c1ccc(NCCN2CCC(Nc3nc4ccccc4n3Cc3ccc(F)cc3)CC2)nc1 [Compound 42] | 0.04 |  | 0.08
16 | c1cnc(NCCN2CCC(Nc3nc4ccccc4n3Cc3ccco3)CC2)nc1 [Compound 43] | 0.16 |  | 0.04
17 | NC(=O)c1cccnc1NCCN1CCC(Nc2nc3ccccc3n2Cc2ccco2)CC1 [Compound 46] | 0.04 | 0.63 | 
18 | Fc1ccc(Cn2c(NC3CCN(CCNc4ncccc4Cl)CC3)nc3cccnc32)cc1 [Compound 47] | 0.08 | 0.31 | 
19 | Brc1ccc(NCCN2CCC(Nc3nc4ccccc4n3Cc3ccccc3)CC2)nc1 [Compound 49] | 0.31 | 2.5 | 
20 | Cc1ccc(Cn2c(NC3CCN(CCNc4ccc(Br)cn4)CC3)nc3ccccc32)cc1 [Compound 51] | 0.02 |  | 0.08
